Test results published in US20040127518A1, “Modulation of anxiety through blockade of anandamide hydrolysis” (priority 2002, published 2004).
“Also recorded” adds a separate entry of the source. Where two headings read alike, the source gives them in different places.

What was measured:
[1] = target: electric eel acetylcholinesterase (Electrophorus electricus, UniProt O42275); settings: for IC50: read-out: Cholinesterase IC50, Table 3, acetylcholinesterase
Description: (§4) We prepared cell fractions from rat brain homogenates, and assayed membrane FAAH activity and cytosol MGL activity using anandamide [ethanolamine-3H] (American Radiolabeled Chemicals, ARC (St. Louis Mo.), 60 Ci/mmol) and 2-mono-oleoyl-glycerol-[glycerol-1,2,3^−3H] (ARC, St. Louis Mo., 20 Ci/mmol), respectively, as substrates (Dinh, T. Proc. Natl. Acad. Sci. U.S.A. (2002)). We conducted [^3H]anandamide transport assays in human astrocytoma cells (Piomelli, D. et al., Proc. Natl. Acad. Sci. U.S.A., 96, 5802-5807 (1999)); CB1 and CB2 binding assays in rat cerebellar membranes and CB2-overexpressing Chinese hamster ovary cells (Receptor Biology-Perkin Elmer, Wellesley, Mass.), respectively, using [^3H]WIN-55212-2 (NEN-Dupont, Boston, Mass., 40-60 Ci/mmol) as a ligand (Devane, W. A. et al. Science, 258, 1946-1949 (1992)); cholinesterase assays with a commercial kit (Sigma, St. Louis, Mo.), using purified enzymes (electric eel acetylcholinesterase type V-S and horse serum cholinesterase; both from Sigma, St. Louis, Mo.) and following manufacturer's instructions.

[2] = target: T1, FAAH (Rattus norvegicus, UniProt P97612); experiment: biochemical; type: biochemical; parameters: from tissue; host or cells: rat brain (membrane fraction of homogenate; Wistar rats)
T1 sequence (P97612 1-579): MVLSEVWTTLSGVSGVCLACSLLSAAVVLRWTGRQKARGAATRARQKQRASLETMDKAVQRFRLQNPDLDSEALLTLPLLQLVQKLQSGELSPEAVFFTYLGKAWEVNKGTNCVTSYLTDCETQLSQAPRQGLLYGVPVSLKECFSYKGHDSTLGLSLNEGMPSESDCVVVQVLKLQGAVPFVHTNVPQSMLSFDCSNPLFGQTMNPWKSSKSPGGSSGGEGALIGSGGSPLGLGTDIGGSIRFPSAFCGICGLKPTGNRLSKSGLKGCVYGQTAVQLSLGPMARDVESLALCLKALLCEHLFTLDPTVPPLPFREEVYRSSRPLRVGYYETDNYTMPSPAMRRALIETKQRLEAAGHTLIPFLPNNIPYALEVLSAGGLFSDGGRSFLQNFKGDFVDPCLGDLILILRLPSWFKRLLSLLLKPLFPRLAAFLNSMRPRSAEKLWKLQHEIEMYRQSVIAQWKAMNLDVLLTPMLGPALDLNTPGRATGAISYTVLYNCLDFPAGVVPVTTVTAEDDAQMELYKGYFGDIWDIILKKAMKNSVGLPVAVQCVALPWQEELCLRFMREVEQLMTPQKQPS

[3] = tested on: anandamide transport; experiment: [3H]anandamide transport assay in human astrocytoma cells; settings: human astrocytoma cells
Description: as §4

[4] = target: CB2 receptor (Homo sapiens, UniProt P34972); experiment: CB2 binding assay in CB2-overexpressing Chinese hamster ovary cells, [3H]WIN-55212-2
Sequence of CB2 receptor (P34972 whole entry): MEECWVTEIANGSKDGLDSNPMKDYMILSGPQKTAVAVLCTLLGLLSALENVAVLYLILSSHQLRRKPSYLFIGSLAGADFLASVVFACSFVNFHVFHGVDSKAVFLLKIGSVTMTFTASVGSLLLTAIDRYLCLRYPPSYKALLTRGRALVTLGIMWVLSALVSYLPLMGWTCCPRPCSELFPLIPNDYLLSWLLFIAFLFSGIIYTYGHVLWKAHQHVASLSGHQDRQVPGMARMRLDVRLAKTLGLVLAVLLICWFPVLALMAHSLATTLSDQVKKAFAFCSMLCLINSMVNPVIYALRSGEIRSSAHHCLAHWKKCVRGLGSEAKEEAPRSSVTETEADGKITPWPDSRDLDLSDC
Description: as §4

[5] = Body temperature (rectal probe); type: in vivo
Description: (§1) We dissolved all compounds in saline/Tween 80/polyethylenglycol (90/5/5) and administered them by i.p. injection immediately before tests. We measured body temperature with a rectal probe (Type T, Copper-Costantan Thermocouple-Physitemp Instruments INC, Clifton, N.J.) connected to a digital thermometer (model BAT-12 Physitemp Instruments INC, Clifton, N.J.); and catalepsy using the procedure described in Tseng and Craft (Tseng, A. H. et al., Eur. J. Pharmacol., 430, 41-47 (2001)).

[6] = tested on: brain content of anandamide, other fatty acid ethanolamides and 2-AG; experiment: Brain levels of fatty acid ethanolamides and 2-AG by HPLC/MS; type: in vivo, rat; settings: 0.3 mg kg-1 i.p., 2 h after injection
Description: We extracted lipids from tissues with a methanol-chloroform mixture and fractionated them by silica gel column chromatography (Giuffrida, A. et al., Anal. Biochem., 280, 87-93 (2000)). Anandamide and other fatty acid derivatives were quantified by HPLC/MS, using an isotope dilution method (Giuffrida, A. et al., Anal. Biochem., 280, 87-93 (2000)).

[7] = Mouse formalin test; type: in vivo; settings: 0.5 mg kg-1 i.p.
Procedure: (§2) We dissolved FAAH inhibitors in polyethyleneglycol/water (1/1) and rimonabant in saline. Formalin and hot-plate assays were carried out in the mouse, as described (Beltramo, M. et al., FEBS Lett., 403, 263-267 (1997)).
(§3) The compounds exerted, however, moderate antinociceptive effects in two models of acute pain.

[8] = Catalepsy; type: in vivo; settings: UCM532 10 mg kg-1 i.p.; UCM597 0.3 mg kg-1 i.p.; data not shown
Description: as §1

[9] = target: horse plasma butyryl cholinesterase (Equus caballus, UniProt P81908); experiment: Cholinesterase assay with commercial kit, purified enzyme
Sequence of horse plasma butyryl cholinesterase (P81908 whole entry): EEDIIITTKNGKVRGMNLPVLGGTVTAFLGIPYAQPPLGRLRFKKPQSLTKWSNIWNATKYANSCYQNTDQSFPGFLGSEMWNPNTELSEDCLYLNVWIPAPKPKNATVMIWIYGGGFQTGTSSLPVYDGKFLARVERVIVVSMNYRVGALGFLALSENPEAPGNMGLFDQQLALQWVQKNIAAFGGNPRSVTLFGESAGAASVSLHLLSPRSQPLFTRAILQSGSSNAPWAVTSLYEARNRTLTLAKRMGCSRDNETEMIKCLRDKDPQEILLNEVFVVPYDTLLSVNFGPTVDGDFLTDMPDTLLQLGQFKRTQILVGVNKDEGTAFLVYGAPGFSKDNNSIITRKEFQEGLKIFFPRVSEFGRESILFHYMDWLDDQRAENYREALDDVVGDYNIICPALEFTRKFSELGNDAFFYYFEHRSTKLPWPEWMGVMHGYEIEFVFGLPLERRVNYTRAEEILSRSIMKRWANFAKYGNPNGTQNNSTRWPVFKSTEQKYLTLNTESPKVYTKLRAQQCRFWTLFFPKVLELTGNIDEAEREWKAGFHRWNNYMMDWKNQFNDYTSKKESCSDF
Description: as §4

[10] = target: T2, rat brain monoglyceride lipase (MGL) (Rattus norvegicus, UniProt Q8R431); experiment: Cytosol MGL activity, 2-mono-oleoyl-glycerol as substrate
T2 sequence (Q8R431 1-303): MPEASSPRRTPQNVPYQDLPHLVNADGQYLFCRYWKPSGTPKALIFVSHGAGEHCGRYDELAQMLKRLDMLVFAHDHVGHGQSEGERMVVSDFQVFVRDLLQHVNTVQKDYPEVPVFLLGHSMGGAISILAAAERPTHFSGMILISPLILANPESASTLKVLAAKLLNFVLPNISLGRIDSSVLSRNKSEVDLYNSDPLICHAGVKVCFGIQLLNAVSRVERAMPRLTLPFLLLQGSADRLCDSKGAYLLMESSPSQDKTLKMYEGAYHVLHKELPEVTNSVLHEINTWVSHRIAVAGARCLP
Description: as §4

[11] = Elevated zero maze test; type: in vivo, rat; settings: adult rats; i.p. 30 min before test; UCM532 5 and 10 mg kg-1; UCM597 0.05-0.1 mg kg-1
Procedure: We dissolved FAAH inhibitors and rimonabant in dimethylsulfoxide (DMSO)/saline (7/3 and 9/1, respectively); we administered FAAH inhibitors by i.p. injection 30 min before tests and rimonabant 30 min before UCM532. The elevated zero maze was comprised of a black Perspex annular platform (105 cm diameter, 10 cm width) elevated to 65 cm above ground level, divided equally into four quadrants (Bickerdike, M. J. et al., Eur. J. Pharmacol., 271, 403-411 (1994); Shepherd, J. K. et al., Psychopharmacology, 116, 56-64 (1994)). […] We placed the rats in a closed quadrant and video recorded them for 5-min periods, thoroughly cleaning the maze between sessions. […] Results are expressed as percent time in open quadrant/total time (percent time open). Results were analyzed by one-way ANOVA followed by Tukey's test. We recorded motor activity of each rat in an Opto-Varimex cage (Columbus Instruments, Columbus, Ohio) linked on-line to a computer and placed in a sound-attenuated room illuminated by a 20-W white light. The amount of time spent in ambulatory activity was analyzed using an Auto-Track software (Columbus Instruments, Columbus, Ohio) as described elsewhere (Ali, M. M. et al., Neurosci. Lett., 284, 57-60 (2000); Wedzony, K. et al., Neuropsychopharmacology, 23, 547-559 (2000)). […] We analyzed data by overall one-way ANOVA followed by Tukey's test for individual between-group comparisons. […]

[12] = Food intake in free-feeding rats; type: in vivo, rat; settings: UCM532 10 mg kg-1 i.p.; UCM597 0.3 mg kg-1 i.p.; data not shown
Procedure: We recorded food intake in free-feeding rats by using an automated system (Scipro Inc., New York). Rats were acclimated to the test cages for three days prior to the tests. Each test began at the onset of the dark phase and lasted for 24 hours.

[13] = Mouse hot-plate test; type: in vivo; settings: 0.5 mg kg-1 i.p., 60 min before test
Procedure: as §2, §3

[14] = tested on: rat cortical neurons; experiment: Transport, accumulation and release of non-metabolized [3H]anandamide in cortical neurons; type: cell-based; settings: for accumulation of non-metabolized [3H]anandamide in neurons: 4-min incubation, UCM532 3 μM, UCM597 10 nM
[15] = Table 3, read-out: Amidohydrolase IC50
[16] = Table 4, FAAH IC50, read-out: Inhibition of Amidohydrolase IC50

Sequence of electric eel acetylcholinesterase (O42275 whole entry): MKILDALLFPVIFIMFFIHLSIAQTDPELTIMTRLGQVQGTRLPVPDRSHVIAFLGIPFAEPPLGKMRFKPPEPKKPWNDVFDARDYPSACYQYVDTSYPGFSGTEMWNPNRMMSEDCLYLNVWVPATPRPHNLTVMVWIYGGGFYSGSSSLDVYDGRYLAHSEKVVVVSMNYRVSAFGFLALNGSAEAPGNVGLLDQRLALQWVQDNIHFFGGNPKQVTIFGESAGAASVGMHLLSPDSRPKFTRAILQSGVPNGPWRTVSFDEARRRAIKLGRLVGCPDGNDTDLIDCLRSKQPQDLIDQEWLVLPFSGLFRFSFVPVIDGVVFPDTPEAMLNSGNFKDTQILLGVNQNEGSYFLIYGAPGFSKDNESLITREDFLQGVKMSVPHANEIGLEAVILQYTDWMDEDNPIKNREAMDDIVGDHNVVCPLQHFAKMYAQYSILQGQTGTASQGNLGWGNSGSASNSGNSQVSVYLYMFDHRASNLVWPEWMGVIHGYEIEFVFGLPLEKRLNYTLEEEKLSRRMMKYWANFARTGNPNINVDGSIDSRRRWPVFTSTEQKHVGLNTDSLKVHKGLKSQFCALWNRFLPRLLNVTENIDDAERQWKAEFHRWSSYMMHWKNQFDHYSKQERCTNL

In the case of `CNC(=O)Oc1cccc2ccccc12` [PL#18, carbaryl, reference compound], the IC50 [1] is reported as 3.1 µM, the “inhibition of FAAH activity (in words)” value [2] is reported as “ineffective” and the IC50 ([2]; IC50(nM)) is reported as over 100000 nM.

Compound hexyl-N-cyclohexyl carbamate [PL#9] has an IC50 [1] of over 30 µM, an IC50 [2, 15] of 3700 nM and an IC50 [2, 16] of 3700 nM.

In the case of “2.3-dihyrdo-2.2-dimethyl-7-benzogumaol N-methylcarbamate [PL#15, reference compound]”, the IC50 [1] is reported as 0.56 µM, the IC50 [2, 15] is reported as over 30000 nM and the IC50 [2, 16] is reported as over 30000 nM.

Work on 4-fluoraphenyl N-butylcarbamate [PL#12] yielded an IC50 [1] of over 30 µM, an IC50 [2, 15] of 11500 nM and an IC50 [2, 16] of 11500 nM.

With `NC(=O)c1cccc(-c2cccc(OC(=O)NC3CCCCC3)c2)c1` [UCM597, cyclohexylcarbamic acid 3′-carbamoylbiphenyl-3-yl ester] the “effect on anandamide transport (in words)” value [3] was “no effect”, the “effect on binding of a high-affinity ligand to CB2 (in words)” value [4] was “no effect” and the “body temperature / hypothermia, compound alone” value ([5]; UCM532 10 mg kg-1 i.p., UCM597 0.3 mg kg-1 i.p.) was “no effect and no”. For the same compound, the “decrease in body temperature elicited by anandamide” value ([5]; UCM597 0.3 mg kg-1 i.p. 30 min before anandamide 5 mg kg-1 i.p.) was “intensified and prolonged”, the “brain content of 2-AG” value [6] was “did not change” and the “brain content of anandamide” value [6] was “significant elevations”. The “brain content of oleoylethanolamide” value ([6]; n=8-15) was 725.3 ± 28.6 pmol g^−1 of tissue, the “brain content of palmitoylethanolamide” value ([6]; n=8-15) was 1324±395 pmol g^−1 of tissue and the “effect on acetylcholinesterase activity (in words)” value [1] was “did not affect”. The “early phase of formalin-evoked pain behavior” value [7] was “attenuated”, the “late phase of formalin-evoked pain behavior” value [7] was “little or no change” and the “catalepsy (rigid immobility)” value [8] was “no catalepsy”. The “effect on butyryl cholinesterase activity (in words)” value [9] was “did not affect”, the “effect on MGL activity (in words)” value [10] was “did not affect” and the “percent time open, elevated zero maze” value [11] was “anxiolytic-like responses”. For the same compound, the “hyperphagia (increased food intake)” value [12] was “no”, the “response latencies, hot-plate test” value [13] was “significantly lengthened” and the “accumulation of non-metabolized [3H]anandamide in neurons” value ([14]; AM404 10 μM) was “promote accumulation”. The “accumulated [3H]anandamide released back into the medium” value ([14]; UCM597-treated (10 nM) neurons, 15 min in [3H]anandamide-free solution, n=3) was 42.6±8.7% and the “carrier-mediated uptake of [3H]anandamide” value ([14]; rat cortical neurons) was “without reducing”.

With `CCCCC/C=C\C/C=C\C/C=C\C/C=C\CCCC(=O)Nc1ccc(O)cc1` [AM404, N-(4-hydroxyphenyl)arachidonamide, reference compound] the “accumulation of non-metabolized [3H]anandamide in neurons” value ([14]; AM404 10 μM) was “significantly reducing; also recorded: reduces” and the “effect on [3H]anandamide release from UCM597-treated neurons” value ([14]; AM404 10 μM, 15-min incubation) was “not inhibited”.
